Values after ≈ are worked out from the molar mass of the structure shown.
Assays:
Assay type in all cases: functional
Conditions in all cases: time 16-18 hrs
Staphylococcus aureus [1] = assay: Antibacterial activity against methicillin-susceptible Staphylococcus aureus ATCC 25923 after 16 to 18 hrs by broth microdilution method
Klebsiella pneumoniae = assay: Antibacterial activity against Klebsiella pneumoniae CICC 21611 after 16 to 18 hrs by broth microdilution method
Acinetobacter baumannii [2] = assay: Antibacterial activity against Acinetobacter baumannii Bio 34235 after 16 to 18 hrs by broth microdilution method
Staphylococcus aureus [3] = assay: Antibacterial activity against methicillin-susceptible Staphylococcus aureus ATCC 13709 after 16 to 18 hrs by broth microdilution method
Staphylococcus aureus [4] = assay: Antibacterial activity against methicillin-resistant Staphylococcus aureus ATCC 33591 after 16 to 18 hrs by broth microdilution method
[5] = test system: Staphylococcus epidermidis; assay: Antibacterial activity against Staphylococcus epidermidis after 16 to 18 hrs by broth microdilution method
Staphylococcus aureus [6] = assay: Antibacterial activity against methicillin-resistant Staphylococcus aureus Bio-090770 after 16 to 18 hrs by broth microdilution method
Staphylococcus aureus [7] = assay: Antibacterial activity against methicillin-resistant Staphylococcus aureus ATCC 43300 after 16 to 18 hrs by broth microdilution method
Acinetobacter baumannii [8] = assay: Antibacterial activity against drug-resistant Acinetobacter baumannii Bio 53272 after 16 to 18 hrs by broth microdilution method
Escherichia coli = assay: Antibacterial activity against Escherichia coli ATCC 25922 after 16 to 18 hrs by broth microdilution method
Staphylococcus aureus [9] = assay: Antibacterial activity against methicillin-susceptible Staphylococcus aureus ATCC 29213 after 16 to 18 hrs by broth microdilution method

Row | Structure (SMILES) | MIC (Staphylococcus aureus [1]) [µg/mL] | MIC (Klebsiella pneumoniae) [µg/mL] | MIC (Acinetobacter baumannii [2]) [µg/mL] | MIC (Staphylococcus aureus [3]) [µg/mL] | MIC (Staphylococcus aureus [4]) [µg/mL] | MIC [5] [µg/mL] | MIC (Staphylococcus aureus [6]) [µg/mL] | MIC (Staphylococcus aureus [7]) [µg/mL] | MIC (Acinetobacter baumannii [8]) [µg/mL] | MIC (Escherichia coli) [µg/mL] | MIC (Staphylococcus aureus [9]) [µg/mL]
1 | CCCC[C@H](CN(O)C=O)C(=O)N1CCC[C@H]1c1nnc(Cc2cccs2)s1 | 2 (≈ 4.73 µM) | > 16 | 16 (≈ 37.9 µM) | 2 (≈ 4.73 µM) | 0.5 (≈ 1.18 µM) | 2 (≈ 4.73 µM) | 2 (≈ 4.73 µM) | 1 (≈ 2.37 µM) | 16 (≈ 37.9 µM) | > 16 | 2 (≈ 4.73 µM)
2 | CCCC[C@H](CN(O)C=O)C(=O)N1CCC[C@H]1c1nnc(-c2ccc(-c3ccccc3)cc2)s1 | 2 (≈ 4.18 µM) | > 16 | > 16 | 2 (≈ 4.18 µM) | 1 (≈ 2.09 µM) | > 16 | 2 (≈ 4.18 µM) | 1 (≈ 2.09 µM) | > 16 | > 16 | 2 (≈ 4.18 µM)
3 | CCCCc1ccc(-c2nnc([C@@H]3CCCN3C(=O)[C@H](CCCC)CN(O)C=O)s2)cc1 | 4 (≈ 8.72 µM) | > 16 | > 16 | 4 (≈ 8.72 µM) | 2 (≈ 4.36 µM) | 8 (≈ 17.4 µM) | 4 (≈ 8.72 µM) | 2 (≈ 4.36 µM) | > 16 | > 16 | 4 (≈ 8.72 µM)
4 | CCCC[C@H](CN(O)C=O)C(=O)N1CCC[C@H]1c1nnc(-c2ccns2)s1 | 1 (≈ 2.44 µM) | 16 (≈ 39.1 µM) | 32 (≈ 78.1 µM) | 1 (≈ 2.44 µM) | 0.25 (≈ 0.61 µM) | 0.5 (≈ 1.22 µM) | 2 (≈ 4.88 µM) | 0.5 (≈ 1.22 µM) | 16 (≈ 39.1 µM) | 64 (≈ 156 µM) | 1 (≈ 2.44 µM)
5 | CCCC[C@H](CN(O)C=O)C(=O)N1CCC[C@H]1c1nnc(-c2ncccc2F)s1 | 1 (≈ 2.37 µM) | > 16 | 16 (≈ 38 µM) | 1 (≈ 2.37 µM) | 0.25 (≈ 0.593 µM) | 1 (≈ 2.37 µM) | 2 (≈ 4.74 µM) | 0.25 (≈ 0.593 µM) | 16 (≈ 38 µM) | > 16 | 1 (≈ 2.37 µM)
6 | CN[C@H](CC(C)C)C(=O)N[C@H]1C(=O)N[C@@H](CC(N)=O)C(=O)N[C@H]2C(=O)N[C@H]3C(=O)N[C@H](C(=O)N[C@H](C(=O)O)c4cc(O)cc(O)c4-c4cc3ccc4O)[C@H](O)c3ccc(c(Cl)c3)Oc3cc2cc(c3O[C@@H]2O[C@H](CO)[C@@H](O)[C@H](O)[C@H]2O[C@H]2C[C@](C)(N)[C@H](O)[C@H](C)O2)Oc2ccc(cc2Cl)[C@H]1O [VANCOMYCIN] |  | 16 (≈ 11 µM) | 16 (≈ 11 µM) |  |  | 16 (≈ 11 µM) |  | 0.25 (≈ 0.173 µM) | 16 (≈ 11 µM) | 16 (≈ 11 µM) | 
7 | CCCC[C@H](CN(O)C=O)C(=O)N1CCC[C@H]1c1nnc(-c2sccc2F)s1 | 0.5 (≈ 1.17 µM) | 16 (≈ 37.5 µM) | 16 (≈ 37.5 µM) | 0.5 (≈ 1.17 µM) | 0.5 (≈ 1.17 µM) | 1 (≈ 2.34 µM) | 2 (≈ 4.69 µM) | 0.5 (≈ 1.17 µM) | 16 (≈ 37.5 µM) | 64 (≈ 150 µM) | 0.5 (≈ 1.17 µM)
8 | CCCC[C@H](CN(O)C=O)C(=O)N1CCC[C@H]1c1nnc(-c2ccco2)s1 | 4 (≈ 10.2 µM) | 32 (≈ 81.5 µM) | 16 (≈ 40.8 µM) | 1 (≈ 2.55 µM) | 0.5 (≈ 1.27 µM) | 0.5 (≈ 1.27 µM) | 2 (≈ 5.1 µM) | 0.5 (≈ 1.27 µM) | 16 (≈ 40.8 µM) | 64 (≈ 163 µM) | 2 (≈ 5.1 µM)
9 | CCCC[C@H](CN(O)C=O)C(=O)N1CCC[C@H]1c1nnc(-c2cc(OC)c(OC)c(OC)c2)s1 | 1 (≈ 2.03 µM) | > 16 | > 16 | 0.5 (≈ 1.02 µM) | 0.25 (≈ 0.508 µM) | 2 (≈ 4.06 µM) | 1 (≈ 2.03 µM) | 0.5 (≈ 1.02 µM) | > 16 | > 16 | 4 (≈ 8.12 µM)
10 | CCCC[C@H](CN(O)C=O)C(=O)N1CCC[C@H]1c1nnc(-c2ccc[nH]2)s1 | 1 (≈ 2.55 µM) | > 16 | > 16 | 1 (≈ 2.55 µM) | 0.25 (≈ 0.639 µM) | 0.5 (≈ 1.28 µM) | 4 (≈ 10.2 µM) | 0.5 (≈ 1.28 µM) | > 16 | > 16 | 1 (≈ 2.55 µM)
11 | CCCC[C@H](CN(O)C=O)C(=O)N1CCC[C@H]1c1nnc(-c2ccsc2)s1 | 1 (≈ 2.45 µM) | 32 (≈ 78.3 µM) | 32 (≈ 78.3 µM) | 4 (≈ 9.79 µM) | 0.25 (≈ 0.612 µM) | 2 (≈ 4.9 µM) | 4 (≈ 9.79 µM) | 0.25 (≈ 0.612 µM) | 16 (≈ 39.2 µM) | 64 (≈ 157 µM) | 1 (≈ 2.45 µM)
12 | CCCC[C@H](CN(O)C=O)C(=O)N1CCC[C@H]1c1nnc(-c2ccnc(C(F)(F)F)c2)s1 | 0.5 (≈ 1.06 µM) | 64 (≈ 136 µM) | 64 (≈ 136 µM) | 0.5 (≈ 1.06 µM) | 0.25 (≈ 0.53 µM) | 1 (≈ 2.12 µM) | 1 (≈ 2.12 µM) | 0.25 (≈ 0.53 µM) | 16 (≈ 33.9 µM) | 128 (≈ 271 µM) | 0.5 (≈ 1.06 µM)
13 | CCCC[C@H](CN(O)C=O)C(=O)N1CCC[C@H]1c1nnc(-c2ccc(OC)c(OC)c2)s1 | 1 (≈ 2.16 µM) | > 16 | > 16 | 1 (≈ 2.16 µM) | 0.25 (≈ 0.54 µM) | 2 (≈ 4.32 µM) | 1 (≈ 2.16 µM) | 0.25 (≈ 0.54 µM) | 16 (≈ 34.6 µM) | > 16 | 0.5 (≈ 1.08 µM)
14 | CCCC[C@H](CN(O)C=O)C(=O)N1CCC[C@H]1c1nnc(C2CCOC2)s1 (stereo partly specified) | 4 (≈ 10.1 µM) | > 16 | > 16 | 4 (≈ 10.1 µM) | 1 (≈ 2.52 µM) | 4 (≈ 10.1 µM) | 4 (≈ 10.1 µM) | 1 (≈ 2.52 µM) | > 16 | > 16 | 4 (≈ 10.1 µM)
15 | CCCC[C@H](CN(O)C=O)C(=O)N1CCC[C@H]1c1nnc(-c2c(F)cccc2[N+](=O)[O-])s1 | 2 (≈ 4.3 µM) | > 16 | > 16 | 2 (≈ 4.3 µM) | 1 (≈ 2.15 µM) | 4 (≈ 8.59 µM) | 2 (≈ 4.3 µM) | 2 (≈ 4.3 µM) | > 16 | > 16 | 2 (≈ 4.3 µM)
16 | CCCC[C@H](CN(O)C=O)C(=O)N1CCC[C@H]1c1nnc(-c2ccc(C(F)(F)F)cc2F)s1 | 2 (≈ 4.09 µM) | > 16 | > 16 | 2 (≈ 4.09 µM) | 0.25 (≈ 0.512 µM) | 4 (≈ 8.19 µM) | 1 (≈ 2.05 µM) | 1 (≈ 2.05 µM) | > 16 | > 16 | 2 (≈ 4.09 µM)
17 | CCCC[C@H](CN(O)C=O)C(=O)N1CCC[C@H]1c1nnc(C2CC2)s1 | 2 (≈ 5.46 µM) | > 16 | > 16 | 2 (≈ 5.46 µM) | 1 (≈ 2.73 µM) | 0.5 (≈ 1.36 µM) | 4 (≈ 10.9 µM) | 1 (≈ 2.73 µM) | > 16 | > 16 | 4 (≈ 10.9 µM)
18 | CCCC[C@H](CN(O)C=O)C(=O)N1CCC[C@H]1c1nnc(-c2ccc([N+](=O)[O-])cc2C(F)(F)F)s1 | 2 (≈ 3.88 µM) | > 16 | > 16 | 0.5 (≈ 0.97 µM) | 0.5 (≈ 0.97 µM) | 4 (≈ 7.76 µM) | 1 (≈ 1.94 µM) | 0.5 (≈ 0.97 µM) | > 16 | > 16 | 1 (≈ 1.94 µM)
19 | CCCC[C@H](CN(O)C=O)C(=O)N1CCC[C@H]1c1nnc(-c2ccc(C(C)(C)C)cc2)s1 | 4 (≈ 8.72 µM) | > 16 | > 16 | 2 (≈ 4.36 µM) | 1 (≈ 2.18 µM) | 4 (≈ 8.72 µM) | 4 (≈ 8.72 µM) | 1 (≈ 2.18 µM) | > 16 | > 16 | 2 (≈ 4.36 µM)
20 | CCCC[C@H](CN(O)C=O)C(=O)N1CCC[C@H]1c1nnc(-c2sccc2C)s1 | 0.5 (≈ 1.18 µM) | 16 (≈ 37.9 µM) | 32 (≈ 75.7 µM) | 0.5 (≈ 1.18 µM) | 0.25 (≈ 0.592 µM) | 0.5 (≈ 1.18 µM) | 0.5 (≈ 1.18 µM) | 0.25 (≈ 0.592 µM) | 16 (≈ 37.9 µM) | 64 (≈ 151 µM) | 0.5 (≈ 1.18 µM)
21 | CCCC[C@H](CN(O)C=O)C(=O)N1CCC[C@H]1c1nnc(-c2ccccc2)s1 | 4 (≈ 9.94 µM) | > 16 | > 16 | 2 (≈ 4.97 µM) | 2 (≈ 4.97 µM) | 4 (≈ 9.94 µM) | 8 (≈ 19.9 µM) | 4 (≈ 9.94 µM) | > 16 | > 16 | 8 (≈ 19.9 µM)
22 | CCCC[C@H](CN(O)C=O)C(=O)N1CCC[C@H]1c1nnc(-c2ccc(F)cc2C(F)(F)F)s1 | 2 (≈ 4.09 µM) | > 16 | > 16 | 2 (≈ 4.09 µM) | 0.5 (≈ 1.02 µM) | 4 (≈ 8.19 µM) | 4 (≈ 8.19 µM) | 2 (≈ 4.09 µM) | > 16 | > 16 | 2 (≈ 4.09 µM)
23 | CCCC[C@H](CN(O)C=O)C(=O)N1CCC[C@H]1c1nnc(C)s1 | 4 (≈ 11.7 µM) | > 16 | > 16 | 4 (≈ 11.7 µM) | 1 (≈ 2.94 µM) | 0.25 (≈ 0.734 µM) | 4 (≈ 11.7 µM) | 4 (≈ 11.7 µM) | 8 (≈ 23.5 µM) | 16 (≈ 47 µM) | 4 (≈ 11.7 µM)
24 | CCCC[C@H](CN(O)C=O)C(=O)N1CCC[C@H]1c1nnc(-c2ccncc2)s1 | 1 (≈ 2.48 µM) | 32 (≈ 79.3 µM) | 64 (≈ 159 µM) | 0.5 (≈ 1.24 µM) | 0.25 (≈ 0.62 µM) | 0.5 (≈ 1.24 µM) | 1 (≈ 2.48 µM) | 0.5 (≈ 1.24 µM) | 32 (≈ 79.3 µM) | 128 (≈ 317 µM) | 0.5 (≈ 1.24 µM)
25 | CCCC[C@H](CN(O)C=O)C(=O)N1CCC[C@H]1c1nnc(-c2ccc(C#N)cc2F)s1 | 0.125 (≈ 0.281 µM) | > 16 | > 16 | 0.125 (≈ 0.281 µM) | 0.125 (≈ 0.281 µM) | 2 (≈ 4.49 µM) | 0.5 (≈ 1.12 µM) | 0.125 (≈ 0.281 µM) | 8 (≈ 18 µM) | 8 (≈ 18 µM) | 0.25 (≈ 0.561 µM)
26 | CCCC[C@H](CN(O)C=O)C(=O)N1CCC[C@H]1c1nnc(-c2ccc(C(F)(F)F)cc2)s1 | 2 (≈ 4.25 µM) | > 16 | > 16 | 4 (≈ 8.5 µM) | 1 (≈ 2.13 µM) | 4 (≈ 8.5 µM) | 2 (≈ 4.25 µM) | 2 (≈ 4.25 µM) | 16 (≈ 34 µM) | > 16 | 4 (≈ 8.5 µM)

Reference: ChEMBL document CHEMBL6121016, “Design, Synthesis, and Biological Evaluation of 1,3,4-Thiadiazole Derivatives as Novel Potent Peptide Deformylase Inhibitors for Combating Drug-Resistant Gram-Positive and -Negative Bacteria” (J Med Chem, 2025)
